Source: US11161830B2, “4-pyridone compound or salt thereof, and pharmaceutical composition and formulation including same” (priority 2017, dated 2021)
Values joined by “and” are separate entries in the source; they are usually repeats but may differ in a detail not shown here. Identical values can stand only once.

Tested on: HBV genotype C
Experiment: Test Example 3-2: in vivo efficacy study in PXB mouse (chimeric mouse with human hepatocytes), first and second study
Design: species or system hepatitis B virus
Conditions: first study, individual mice
Method: An in vivo efficacy study with a PXB mouse (a chimeric mouse with human hepatocytes) was carried out in PhenixBio Co., Ltd. 19-Week-or-more-old male mice having body weights of 10.5 g or more after the elapse of 13 weeks or more from the infection with HBV genotype C were allocated into the respective groups and used. The studies were carried out twice, and a 21-day administration withdrawal period was provided between the first study and the second study.
The first administration day in the first study was taken as day 0, and the compound of Example 6-5 was orally administered at 1 mg/kg, 3 mg/kg, 10 mg/kg, and 30 mg/kg twice a day, or 0.5% methylcellulose (vehicle) was orally administered once a day for 14 days. Before administration on day 0, day 3, Day 7, and day 10, and on day 14, the blood was collected from the orbital venous plexus under anesthesia with isoflurane.
The first administration day in the second study was taken as day 35, and the compounds of Examples 19-2 and 20-2 were each orally administered at 3 mg/kg twice a day, or 0.5% methylcellulose (vehicle) was orally administered once a day for 14 days. Before administration on day 35, day 38, day 42, and day 45, the blood was collected from the orbital venous plexus under anesthesia with isoflurane. On day 49, the blood was collected from the heart under anesthesia with isoflurane.
The serum was separated from the collected blood and purified with a QIAamp (registered trademark) DNA Blood Mini Kit (manufactured by QIAGEN). The amount of HBV-DNA in the obtained solution was absolutely quantified by a real-time PCR method. In addition, the amount of HBsAg in the serum was absolutely quantified by chemiluminescent enzyme immunoassay using Lumipulse (registered trademark) HBsAg-HQ (manufactured by Fujirebio Inc.).

[1] = orally 1 mg/kg twice a day, Day 0 (before administration), 1 mg/kg
[2] = orally 1 mg/kg twice a day, Day 3, 1 mg/kg
[3] = orally 1 mg/kg twice a day, Day 7, 1 mg/kg
[4] = orally 1 mg/kg twice a day, Day 14, 1 mg/kg
[5] = orally 3 mg/kg twice a day, Day 0 (before administration), 3 mg/kg
[6] = orally 3 mg/kg twice a day, Day 3, 3 mg/kg
[7] = orally 3 mg/kg twice a day, Day 7, 3 mg/kg
[8] = orally 3 mg/kg twice a day, Day 10, 3 mg/kg
[9] = orally 3 mg/kg twice a day, Day 14, 3 mg/kg
[10] = orally 10 mg/kg twice a day, Day 0 (before administration), 10 mg/kg
[11] = orally 10 mg/kg twice a day, Day 3, 10 mg/kg
[12] = orally 10 mg/kg twice a day, Day 7, 10 mg/kg
[13] = orally 10 mg/kg twice a day, Day 10, 10 mg/kg
[14] = orally 10 mg/kg twice a day, Day 14, 10 mg/kg
[15] = orally 30 mg/kg twice a day, Day 0 (before administration), 30 mg/kg
[16] = orally 30 mg/kg twice a day, Day 3, 30 mg/kg
[17] = orally 30 mg/kg twice a day, Day 7, 30 mg/kg
[18] = orally 30 mg/kg twice a day, Day 10, 30 mg/kg
[19] = orally 30 mg/kg twice a day, Day 14, 30 mg/kg

For `COCCN1CCN(c2nc3ccc(-n4cc(C(=O)O)c(=O)cc4-c4ccc(N5CCCC5)c(Cl)c4)cc3s2)CC1` [Example 6-5, 6-(3-chloro-4-(pyrrolidin-1-yl)phenyl)-1-(2-(4-(2-methoxyethyl)piperazine-1-yl)benzo[d]thiazol-6-yl)-4-oxo-1,4-dihydropyridine-3-carboxylic acid], which HBV-DNA in blood [1] is on record?
Its HBV-DNA in blood is 8.4E+08 copies/mL and 1.1E+09 copies/mL.

What about the HBsAg in serum [1] of the same compound?
Its HBsAg in serum is 1,910 IU/mL and 2,498 IU/mL.

What about the HBV-DNA in blood [2] of the same compound?
The HBV-DNA in blood was 1.6E+09 copies/mL and 7.7E+08 copies/mL.

What about the HBsAg in serum [2] of the same compound?
The HBsAg in serum was 2,288 IU/mL and 2,694 IU/mL.

And the HBV-DNA in blood [3]?
The HBV-DNA in blood was 1.4E+09 copies/mL and 1.1E+09 copies/mL.

What about the HBsAg in serum [3] of the same compound?
The HBsAg in serum was 2,444 IU/mL and 2,663 IU/mL.

What about the HBV-DNA in blood (orally 1 mg/kg twice a day, Day 10) of the same compound?
The HBV-DNA in blood was 1.2E+09 copies/mL.

And the HBsAg in serum (orally 1 mg/kg twice a day, Day 10, 1 mg/kg)?
The HBsAg in serum was 1,947 IU/mL and 2,431 IU/mL.

And the HBV-DNA in blood [4]?
Its HBV-DNA in blood is 6.8E+08 copies/mL and 6.4E+08 copies/mL.

And the HBsAg in serum [4]?
The HBsAg in serum was 1,777 IU/mL and 2,344 IU/mL.

What about the HBV-DNA in blood [5] of the same compound?
Its HBV-DNA in blood is 1.8E+09 copies/mL and 9.8E+08 copies/mL.

What about the HBsAg in serum [5] of the same compound?
The HBsAg in serum was 2,722 IU/mL and 2,314 IU/mL.

What about the HBV-DNA in blood [6] of the same compound?
The HBV-DNA in blood was 5.7E+08 copies/mL and 5.6E+08 copies/mL.

And the HBsAg in serum [6]?
The HBsAg in serum was 972 IU/mL and 1,059 IU/mL.

What about the HBV-DNA in blood [7] of the same compound?
The HBV-DNA in blood was 4.9E+08 copies/mL and 4.0E+08 copies/mL.

And the HBsAg in serum [7]?
Its HBsAg in serum is 859 IU/mL and 876 IU/mL.

What about the HBV-DNA in blood [8] of the same compound?
Its HBV-DNA in blood is 5.7E+08 copies/mL and 6.2E+08 copies/mL.

What about the HBsAg in serum [8] of the same compound?
Its HBsAg in serum is 959 IU/mL and 1,025 IU/mL.

And the HBV-DNA in blood [9]?
The HBV-DNA in blood was 6.1E+08 copies/mL and 5.2E+08 copies/mL.

And the HBsAg in serum [9]?
Its HBsAg in serum is 1,012 IU/mL and 837 IU/mL.

What about the HBV-DNA in blood [10] of the same compound?
The HBV-DNA in blood was 1.1E+09 copies/mL and 1.2E+09 copies/mL.

And the HBsAg in serum [10]?
Its HBsAg in serum is 2,500 IU/mL and 2,409 IU/mL.

What about the HBV-DNA in blood [11] of the same compound?
Its HBV-DNA in blood is 8.0E+08 copies/mL and 4.5E+08 copies/mL.

What about the HBsAg in serum [11] of the same compound?
The HBsAg in serum was 595 IU/mL and 421 IU/mL.

What about the HBV-DNA in blood [12] of the same compound?
Its HBV-DNA in blood is 3.3E+08 copies/mL and 4.0E+08 copies/mL.

And the HBsAg in serum [12]?
The HBsAg in serum was 445 IU/mL and 366 IU/mL.

And the HBV-DNA in blood [13]?
Its HBV-DNA in blood is 7.3E+08 copies/mL and 3.9E+08 copies/mL.

What about the HBsAg in serum [13] of the same compound?
The HBsAg in serum was 394 IU/mL and 329 IU/mL.

And the HBV-DNA in blood [14]?
Its HBV-DNA in blood is 4.9E+08 copies/mL and 3.6E+08 copies/mL.

What about the HBsAg in serum [14] of the same compound?
Its HBsAg in serum is 368 IU/mL and 398 IU/mL.

What about the HBV-DNA in blood [15] of the same compound?
The HBV-DNA in blood was 1.6E+09 copies/mL and 1.2E+09 copies/mL.

What about the HBsAg in serum [15] of the same compound?
Its HBsAg in serum is 2,291 IU/mL and 2,328 IU/mL.

What about the HBV-DNA in blood [16] of the same compound?
Its HBV-DNA in blood is 8.3E+08 copies/mL and 4.4E+08 copies/mL.

And the HBsAg in serum [16]?
Its HBsAg in serum is 673 IU/mL and 592 IU/mL.

And the HBV-DNA in blood [17]?
Its HBV-DNA in blood is 7.5E+08 copies/mL and 3.7E+08 copies/mL.

And the HBsAg in serum [17]?
The HBsAg in serum was 458 IU/mL and 370 IU/mL.

What about the HBV-DNA in blood [18] of the same compound?
The HBV-DNA in blood was 8.0E+08 copies/mL and 4.9E+08 copies/mL.

What about the HBsAg in serum [18] of the same compound?
Its HBsAg in serum is 359 IU/mL and 392 IU/mL.

And the HBV-DNA in blood [19]?
Its HBV-DNA in blood is 6.1E+08 copies/mL and 2.6E+08 copies/mL.

What about the HBsAg in serum [19] of the same compound?
The HBsAg in serum was 408 IU/mL and 268 IU/mL.
